In article PMC1283537, “Systematic Discovery of New Recognition Peptides Mediating Protein Interaction Networks” (PLoS Biology, 2005):
Where no end group is shown, it is not given here.

What was measured:
[1] = test system: Cdlc2 (Dynein light chain 2); experiment: Fluorescence polarization binding of FITC-labelled peptides to Cdlc2; set-up: species or system Drosophila melanogaster; details: FITC-labelled peptide 10 nM, PBS pH 7.4, protein concentrations 5–400 μM
abl-SH3 domain = target: T1, abl-SH3 domain (Homo sapiens, UniProt P00519); experiment: Fluorescence polarization preliminary test with abl-SH3 binding peptide; details: FITC N-terminal labeled peptide
T1 construct: preparation of human abl-SH3 domain [9]; made in house

Translin = target: T2, Translin (Drosophila melanogaster, UniProt Q7JVK6); experiment: Fluorescence polarization binding of FITC-labelled peptides to Translin; details: FITC N-terminal labeled peptide 10 nM in PBS pH 7.4, 5 min at room temperature, non-linear regression on three independent experiments
T2 sequence (Q7JVK6 1-235): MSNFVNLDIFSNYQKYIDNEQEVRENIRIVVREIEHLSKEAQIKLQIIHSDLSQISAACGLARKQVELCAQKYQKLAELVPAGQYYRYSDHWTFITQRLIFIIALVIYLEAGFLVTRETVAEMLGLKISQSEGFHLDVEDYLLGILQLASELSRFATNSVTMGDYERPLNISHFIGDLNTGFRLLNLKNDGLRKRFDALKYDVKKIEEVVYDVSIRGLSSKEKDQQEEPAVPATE

[2] = target: T3, protein phosphatase 1 (PP1) (Homo sapiens, UniProt P36873); experiment: Fluorescence polarization binding of FITC-labelled peptides to PP1; set-up: species or system H. sapiens
T3 construct: made in house; host or cells: E. coli BL21(DE3)
T3 sequence (P36873 whole entry): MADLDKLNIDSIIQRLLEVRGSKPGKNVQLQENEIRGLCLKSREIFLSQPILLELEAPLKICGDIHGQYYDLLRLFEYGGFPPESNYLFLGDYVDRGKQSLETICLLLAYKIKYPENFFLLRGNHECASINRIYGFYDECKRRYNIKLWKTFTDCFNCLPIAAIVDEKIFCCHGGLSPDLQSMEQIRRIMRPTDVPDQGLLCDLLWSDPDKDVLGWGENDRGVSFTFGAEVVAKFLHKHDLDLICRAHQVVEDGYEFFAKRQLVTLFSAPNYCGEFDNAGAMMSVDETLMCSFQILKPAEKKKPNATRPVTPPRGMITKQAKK

T1 sequence (P00519 61-121 limits assumed): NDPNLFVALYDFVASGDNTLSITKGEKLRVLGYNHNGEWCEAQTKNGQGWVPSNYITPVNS

Sequence: ERAAAAENA [mutant of the Cdlc2 native peptide, motif positions mutated to Alanine]
- binding to Cdlc2 [1]: No binding

Sequence: ERAIQTENA [CG33213/104-112, Cdlc2 native peptide with the IQTE variant motif]
- binding to Cdlc2 [1]: No binding

Sequence: GAPTYSPPPPP [GAPTYSPPPPP]
- Kd (abl-SH3 domain): 3 ± 0.4 µM

Sequence: PFGTQTSPP [CG32130/215-223, additional peptide containing the canonical TQT motif, reference compound]
- binding to Cdlc2 [1]: No binding

Sequence: VSASPAAVAAPV (also: FITC label, position not given here) [Mutant]
- Kd (Translin): > 300 µM

Sequence: VSASPAAVAAPV [Mutant]
- Kd ([2]; FITC N-terminal labeled peptide 10 nM in PBS pH 7.4, 5 min at room temperature, normalized to extrapolated Bmax, non-linear regression, three independent experiments): 65 ± 14 µM
- specific binding to PP1 ([2]; result in words): retain some affinity
